Values after ≈ are worked out from the molar mass of the structure shown. Read-outs that look alike come from different tables or passages of the source.
Columns and labels:
cytochrome P450 2C8 = target: T1, cytochrome P450 2C8 (Homo sapiens, UniProt P10632); experiment: Inhibition of cytochrome P450 isoform activity in human liver microsomes; type: in vitro ADME; details: N/A: no inhibition, tested 0.0046–10 μM
T1 construct: was investigated using human liver microsomes (XenoTech, USA); tissue XenoTech; host or cells: human liver microsomes
T1 sequence (P10632 1-490): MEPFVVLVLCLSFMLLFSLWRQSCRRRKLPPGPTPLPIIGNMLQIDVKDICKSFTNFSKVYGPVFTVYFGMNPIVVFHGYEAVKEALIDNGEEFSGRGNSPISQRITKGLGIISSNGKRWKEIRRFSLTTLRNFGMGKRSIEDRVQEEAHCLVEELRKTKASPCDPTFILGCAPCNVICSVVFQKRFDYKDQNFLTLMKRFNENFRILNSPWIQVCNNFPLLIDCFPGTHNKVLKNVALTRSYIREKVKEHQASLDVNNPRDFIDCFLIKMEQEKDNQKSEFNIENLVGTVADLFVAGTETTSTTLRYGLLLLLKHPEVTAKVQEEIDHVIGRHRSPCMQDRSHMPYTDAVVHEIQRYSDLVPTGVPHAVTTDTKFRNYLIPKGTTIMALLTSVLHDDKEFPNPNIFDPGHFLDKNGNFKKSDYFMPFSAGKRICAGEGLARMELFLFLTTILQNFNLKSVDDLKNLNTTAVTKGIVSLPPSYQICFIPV
Protocol: The effect of the tested compound on the activity of the main isoforms of human liver cytochrome P450 (1A2, 2C9, 2C19, 2D6, 3A4, 2C8) was investigated using human liver microsomes (XenoTech, USA) and their corresponding substrates: phenacetin, testosterone, tolbutamide, S-mephenytoin, dextromethorphan hydrobromide, and amodiaquine dihydrochloride dihydrate (Sigma-Aldrich, USA).
[…]. The reaction was stopped after 20 min by adding acetonitrile. The resulting metabolites were detected using UPLC–MS/MS. The calculation of the IC50 half-maximal inhibition concentration values was performed in the GraphPad Prism 6.0 (GraphPad Software Inc., USA) program, based on the equations of the experimental curves.

MRSA clinical isolates = experiment: MIC by broth microdilution against multidrug-resistant MRSA clinical isolates; type: cell-based, Staphylococcus aureus; details: for MIC: Staphylococcus aureus, MRSA, read-out: MIC against 8 MRSA strains
Protocol: Clinical MRSA isolates with multidrug resistance were obtained from the collection of the Research Institute of Antimicrobial Chemotherapy, Smolensk State Medical Academy.
The MICs were determined using a broth microdilution method according to [42]. Briefly, serial dilutions of the tested compounds in 50 µL of Mueller Hinton broth (BD) were prepared in 96-well microplates. The antibiotics vancomycin and linezolid (Sigma-Aldrich, St. Louis, MO, USA) were used as a positive control. Bacterial suspensions of the tested MRSA strains were prepared in the Mueller Hinton broth (BD) with a concentration 1 × 10^6 CFU/mL, and then 50 µL aliquots were added to the prepared microplates. The final concentrations of the antibiotics in the wells were 1, 0.5, 0.25, and 0.125 mg/L, for the tested compounds, and 2 mg/L for vancomycin and linezolid. Negative control (lack of bacterial cells) and growth control (lack of compound) wells were included in all plates. The microplates were incubated at 37 °C for 18 h. The growth was assessed visually after incubation, and the MIC was assumed as the lowest compound concentration at which a noticeable growth of the microorganisms was inhibited (no visible growth). All experiments were conducted in triplicate.

[1] = system: human embryonic fibroblasts (HEFs); experiment: MTT cytotoxicity on human embryonic fibroblasts; type: cell-based; details: Homo sapiens, Fibroblast, 24 h, ND = non-toxic in tested concentrations (up to 50 mg/L)
Protocol: (§1) The primary screening of 22 substances was performed on human embryonic fibroblasts (HEFs). […] The HepG2 cell line was obtained from the American Type Culture Collection (ATCC cat. # HB-8065). The primary HEF cells (normal human embryonic fibroblasts) were derived from human embryonic stem cells. The cells were cultured in DMEM/F12 (1:1) medium containing 10% fetal bovine serum (Invitrogen, Carlsbad, CA, USA) at 37 °C and 5% CO2, according to standard mammalian tissue culture protocols and sterile technique. […] The incubation time with the substance was 24 h for all substances and cell lines. Cell detachment by trypsin, centrifugation, and counting in a hemocytometer were performed 16 h before the addition of the substance. For correct counting of the HepG2 cells, the cell suspension was passed through a syringe needle to get rid of cell aggregates. The cells were placed in the wells of a 96-well plate. The number of cells was selected according to the properties of the cell line and the final optical density in the experiment. Fibroblasts and hepatocytes were used in the amount of 10 thousand cells per well in 100 μL of DMEM/F12 medium supplemented with 10% fetal bovine serum. The substances were added to 100 µL of medium in the wells so that the final concentrations were 50, 25, 12.5, 6.25, 3.125, and 1.62 mg/L. The final well volume was 200 µL. The medium containing fetal bovine serum, without added substances, was used as a negative control. After 24 h, excessive amounts of medium were discarded. A total of 30 µL of MTT solution (5 mg/mL in PBS) was added to each well. After the precipitation of formazan crystals (3 h incubation), they were dissolved using 100 μL of dimethyl sulfoxide. The optical density (OD) was measured at 570 nm using a microplate reader (Eppendorf). For every condition, the cell viabilities were assessed in at least three independent experiments for every cell culture. Cell survival was calculated using the following formula:(OD of treated cells − OD blank)/(OD of control cells − OD blank) × 100%, where OD blank represents the OD values in wells without cells but with the addition of the MTT and DMSO solutions. The results were presented in the form of cytotoxicity curves, and the graphs were also plotted in a Microsoft Excel program; the calculation of the IC50 half-maximal inhibition concentration values was performed in a GraphPad Prism 6.0 (GraphPad Software Inc., San Diego, CA, USA) program, based on the equations of the cytotoxicity curves.

[2] = system: HepG2 human liver carcinoma cells; experiment: MTT cytotoxicity (hepatotoxicity) on HepG2; type: cell-based; details: Homo sapiens, HepG2, 24 h
Protocol: as §1

MRSA = experiment: Selectivity index (average IC50 on eukaryotic cells / average MIC on MRSA); type: cell-based, Staphylococcus aureus; details: average IC50 on eukaryotic cells divided by average MIC on MRSA
Protocol: The selectivity index was calculated for each compound as the average IC50 on eukaryotic cells divided by the average MIC on MRSA (Table 2).

[3] = Solubility in water by HPLC; type: physicochemical; details: water, kinetic from dmso stock
Protocol: The solubility of the compounds in water was assessed using HPLC analysis. Two 1.0 mg portions of the test compounds were dissolved in 10 μL of dimethyl sulfoxide; 1.0 mL of acetonitrile was added to one sample (standard), and 1.0 mL of water was added to the second sample (tested sample). Both vials were mixed in a shaker for 5 min, then centrifuged at 10,000 rpm for 5 min. The supernatants were collected and analyzed using Agilent 1290 Infinity (Agilent Technologies, Santa Clara, CA, USA) with a YMC-Triart C18 50 × 2.0 mm, 1.9 μm column. The concentration of the test compound in water was determined by comparing the peak areas of the standard (concentration 1.0 mg/mL) and the tested sample.

IC50 (cytochrome P450 2C8) [nM]	MIC Range Against 8 MRSA Strains (MRSA clinical isolates; 8 multidrug-resistant MRSA clinical isolates, tested 0.125-1 mg/L) [µg/mL]	MIC (MRSA clinical isolates; Figure 6, MRSA strain 2) [µg/mL]	MIC (MRSA clinical isolates; Figure 6, MRSA strain 7) [µg/mL]	MIC (MRSA clinical isolates; Figure 6, MRSA strain 8) [µg/mL]	MIC (MRSA clinical isolates; Figure 6, MRSA strain 9) [µg/mL]	MIC (MRSA clinical isolates; Figure 6, MRSA strain 13) [µg/mL]	MIC (MRSA clinical isolates; Figure 6, MRSA strain 21) [µg/mL]	MIC (MRSA clinical isolates; Figure 6, MRSA strain 48) [µg/mL]	MIC (MRSA clinical isolates; Figure 6, MRSA strain 50) [µg/mL]	solubility at 5 min ([3]; read-out: Solubility in water, mass concentration) [µg/mL]	solubility at 5 min ([3]; read-out: Solubility in water, molar concentration) [µM]	Compound	IC50 [1] [µg/mL]	IC50 [2] [µg/mL]	Selectivity Index (MRSA)
2600												O=c1c(O)c(-c2ccc(O)c(O)c2)oc2cc(O)cc(O)c12 [Quercetin, quercetin]			
	0.5 to 1	1 (≈ 2.71 µM)	0.5 (≈ 1.35 µM)	0.5 (≈ 1.35 µM)	1 (≈ 2.71 µM)	0.5 (≈ 1.35 µM)	0.5 (≈ 1.35 µM)	0.5 (≈ 1.35 µM)	0.5 (≈ 1.35 µM)	34.9	90	CCOC(=O)c1[nH]c2cc(F)ccc2c1/N=N/N(C)CCc1ccccn1 [BX-SI048, Ethyl (E)-6-fluoro-3-(3-methyl-3-(2-(pyridin-2-yl)ethyl)triaz-1-en-1-yl)-1H-indole-2-carboxylate]	13 (≈ 35.2 µM)	22 (≈ 59.6 µM)	28

Reference: paper PMC11899342, “Novel Triazeneindole Antibiotics: Synthesis and Hit-to-Lead Optimization” (International Journal of Molecular Sciences, 2025)
